Measurements: paper PMC7775144, “Enzyme Inhibitory Kinetics and Molecular Docking Studies of Halo-Substituted Mixed Ester/Amide-Based Derivatives as Jack Bean Urease Inhibitors” (BioMed Research International, 2020)
Entries after “also recorded” stand apart in the source; their conditions may differ. Like-named read-outs stand apart in the source and are kept apart here.

Experiments:
jack bean urease [1] = target: T1, jack bean urease (Canavalia ensiformis, UniProt P07374); assay: biochemical; assay type: biochemical
Procedure: The inhibitory effects on urease activity were done based on the Weatherburn method, using the indophenol scheme by determining the amount of ammonia produced. Briefly, 20 μL of jack bean urease enzyme (0.135 units) and 20 μL of the tested compounds were taken in 50 μL buffer and were incubated for 30 min. Temperature was kept at 37°C in a 96-well plate reader. The buffer solution was made by 0.01 molar K2HPO4/KH2PO4, 1 mM EDTA, 100 mM urea, and 0.01 M LiCl; pH was maintained at 7.0. Then, 50 μL of phenol reagent (1% w/v phenol and 0.005% w/v sodium nitroprusside) was added in 50 μL of alkali reagent in each well. The alkali reagent was prepared by 0.5% w/v NaOH and 0.1% NaOCl. Absorbance was measured at 625 nm using OPTIMax, a tunable microplate reader, after 10 min interval in a triplicate manner. The thiourea was used as a standard jack bean urease inhibitor. The data has been analyzed using software, GraphPad Prism, and statistical analysis (SD) was performed by using SigmaPlot software to get SD values of the bioassay results.

jack bean urease [2] = target: T1, jack bean urease; assay: Kinetic study of jack bean urease inhibition (Lineweaver-Burk plots); assay type: biochemical; design: 1/Vmax: unit not given here
Procedure: The derivative 4b was selected on the basis of its high activity for the determination of its kinetic mechanism on jack bean urease. The enzyme inhibition EI and enzyme-substrate inhibition ESI constants for compound 4b have been determined. The inhibitor concentration used in the kinetic experiments was 0.00, 0.0008, and 0.0016 μM while concentration of substrate was 0.0, 0.1, 0.2, 0.3, and 0.4 mM. The kinetic mechanism was determined by plotting of 1/V versus 1/[S] in the presence of inhibitor concentrations which gave a series of straight lines as shown in Figure 3. […] The EI dissociation constant (Ki) and ESI dissociation constant (Ki′) for compound 4b have also been determined from Lineweaver-Burk plots.

jack bean urease [3] = target: T1, jack bean urease; details: jack bean urease inhibitors already reported; ref [35], [36]; cited from earlier work
[4] = n = 3, 30 min, 37°C, pH 7.0, 100 mM urea, read-out: Urease (jack bean) inhibition IC50 ± SD

T1 sequence (P07374 whole entry, looked up): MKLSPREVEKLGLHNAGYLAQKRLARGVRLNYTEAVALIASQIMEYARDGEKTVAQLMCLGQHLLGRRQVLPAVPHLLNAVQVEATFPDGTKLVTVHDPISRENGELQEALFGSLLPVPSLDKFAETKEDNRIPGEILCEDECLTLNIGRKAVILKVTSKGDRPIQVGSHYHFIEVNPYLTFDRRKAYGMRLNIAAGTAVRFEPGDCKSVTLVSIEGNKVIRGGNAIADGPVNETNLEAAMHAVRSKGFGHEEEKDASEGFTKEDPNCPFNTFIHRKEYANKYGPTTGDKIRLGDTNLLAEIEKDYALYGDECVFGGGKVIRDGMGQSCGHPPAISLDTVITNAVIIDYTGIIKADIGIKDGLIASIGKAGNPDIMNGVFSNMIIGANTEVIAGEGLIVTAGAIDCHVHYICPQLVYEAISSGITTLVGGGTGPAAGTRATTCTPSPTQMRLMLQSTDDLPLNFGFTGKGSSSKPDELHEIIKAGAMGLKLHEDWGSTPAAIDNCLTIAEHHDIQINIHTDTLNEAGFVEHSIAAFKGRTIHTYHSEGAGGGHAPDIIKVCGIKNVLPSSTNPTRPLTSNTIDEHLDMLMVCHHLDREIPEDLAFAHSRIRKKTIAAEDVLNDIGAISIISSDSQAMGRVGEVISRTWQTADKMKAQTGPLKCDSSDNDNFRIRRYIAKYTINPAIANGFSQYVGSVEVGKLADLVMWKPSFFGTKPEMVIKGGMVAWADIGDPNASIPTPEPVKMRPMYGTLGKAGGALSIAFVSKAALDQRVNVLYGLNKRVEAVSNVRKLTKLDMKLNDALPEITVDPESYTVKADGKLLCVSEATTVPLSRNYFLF

Q: Which IC50 (jack bean urease [1]; [4]) does the source give for “2-((5-Isopropyl-2-methyl phenyl) Amino)-2-oxoethyl 2-Bromobenzoate [4i]” here?
A: 0.0211 ± 0.0007 µM

Q: For “2-((5-Isopropyl-2-methyl phenyl) Amino)-2-oxoethyl 3,4-Dichlorobenzoate [4k]”, which IC50 (jack bean urease [1]; [4]) is on record?
A: 0.0501 ± 0.0017 µM

Q: Which results are given for “2-((5-Isopropyl-2-methyl phenyl) Amino)-2-oxoethyl 3-Bromobenzoate [4j]”?
A: IC50 (jack bean urease [1]; [4]): 0.0021 ± 0.0001 µM; times more active than derivative 4k (jack bean urease [1]; ratio of urease inhibitory activity, 4j versus 4k): 25

Q: With `CC(C)c1ccc(NC(=O)COC(=O)c2ccccc2Cl)cc1` [4a, 2-((4-Isopropylphenyl)amino)-2-oxoethyl 2-Chlorobenzoate] as the compound, how does the melting point read?
A: 94 to 96 °C

Q: And the IC50 (jack bean urease [1])?
A: 0.0571 ± 0.0019 µM

Q: For `CC(C)c1ccc(NC(=O)COC(=O)c2cccc(Cl)c2)cc1` [4b, 2-((4-Isopropylphenyl)amino)-2-oxoethyl 3-Chlorobenzoate], which melting point is on record?
A: 96 to 98 °C

Q: And the IC50 (jack bean urease [1])?
A: 0.0016 ± 0.0002 µM

Q: And the Ki (jack bean urease [2])?
A: 0.0007 µM

Q: What about the Inhibition type (jack bean urease [2]; Lineweaver-Burk plots) of the same compound?
A: mixed type of inhibitor; also recorded: mixed type of inhibition

Q: What about the “Ki′ (ESI dissociation constant)” value (jack bean urease [2]; from Lineweaver-Burk plots) of the same compound?
A: 0.0018 µM

Q: What about the 1/Vmax (jack bean urease [2]; inhibitor dose 0.0016 μM, substrate urea) of the same compound?
A: 0.00088

Q: With `CC(C)c1ccc(NC(=O)COC(=O)c2ccc(Cl)c(Cl)c2)cc1` [4c, 2-((4-Isopropylphenyl)amino)-2-oxoethyl 3,4-Dichlorobenzoate] as the compound, how does the melting point read?
A: 107 to 108 °C

Q: And the IC50 (jack bean urease [1])?
A: 0.0182 ± 0.0006 µM

Q: With `CC(C)c1ccc(NC(=O)COC(=O)c2ccccc2Br)cc1` [4d, 2-((4-Isopropylphenyl)amino)-2-oxoethyl 2-Bromobenzoate] as the compound, how does the melting point read?
A: 89 to 90 °C

Q: What about the IC50 (jack bean urease [1]) of the same compound?
A: 0.0038 ± 0.0002 µM

Q: For `CC(C)c1ccc(NC(=O)COC(=O)c2cccc(Br)c2)cc1` [4e, 2-((4-Isopropylphenyl)amino)-2-oxoethyl 3-Bromobenzoate], which melting point is on record?
A: 91 to 92 °C

Q: What about the IC50 (jack bean urease [1]) of the same compound?
A: 0.0627 ± 0.0021 µM

Q: What does the source list for `CC(C)c1ccc(NC(=O)COC(=O)c2ccccc2I)cc1` [4f, 2-((4-Isopropylphenyl)amino)-2-oxoethyl 2-Iodobenzoate]?
A: melting point: 91 to 92 °C; IC50 (jack bean urease [1]): 0.0312 ± 0.0011 µM

Q: For `Cc1ccc(C(C)C)cc1NC(=O)COC(=O)c1ccccc1Cl` [4g, 2-((5-Isopropyl-2-methylphenyl) Amino)-2-oxoethyl 2-Chloro Benzoate], which melting point is on record?
A: 115 to 116 °C

Q: What about the IC50 (jack bean urease [1]) of the same compound?
A: 0.0038 ± 0.0002 µM

Q: Which IC50 (jack bean urease [1]) does the source give for `Cc1ccc(C(C)C)cc1NC(=O)COC(=O)c1ccccc1I` [4l, 2-((5-Isopropyl-2-methylphenyl) Amino)-2-oxoethyl 2-Iodobenzoate] here?
A: 0.0115 ± 0.0039 µM

Q: For `NC(N)=S` [Thiourea, thiourea, reference compound], which IC50 (jack bean urease [1]; [4]) is on record?
A: 0.472 ± 0.135 µM

Q: With `Cc1ccc(C(=O)NC(=S)Nc2coc(=O)c3ccccc23)cc1` [compound 2] as the compound, how does the IC50 (jack bean urease [3]) read?
A: 0.0065 µM
